Measurements reported in patent publication US11034717B2, “Farnesoid X receptor modulators” (Intercept Pharmaceuticals, Inc., priority 2015, dated 2021).
Where two headings read alike, the source gives them in different places.

Assays:
HepG2 cells [1] = assay: In-vitro cytotoxicity, ATP content; format: cell-based; settings: Table 5B, HepG2
Source text: To evaluate in-vitro cytotoxicity of a compound of the invention, two different assay methods are employed. The assays evaluate cell viability by measuring ATP levels and cytotoxicity by measuring LDH release. […] It has been called the “molecular unit of currency” when it comes to intracellular energy transfer.
(§1) An additional method to determine the viability of cells is to detect the integrity of the membrane that defines the cellular compartmentalization. Measuring the leakage of components out of the cytoplasm, in damaged cell membranes, indicates loss of membrane integrity, and LDH release is the method used to determine common toxicity in cells. HepG2 cells are treated with a compound of the invention, and serial dilutions are performed. LCA dilutions are added to the plated cells as assay controls together with no-cell and untreated cells. The assay is performed in triplicate for each test compound concentration.

[2] = In-vitro cytotoxicity, membrane integrity (LDH release); format: cell-based; settings: human; HepG2; read-out: Membrane Integrity (LDH measure) LC50
Source text: (§2) To evaluate in-vitro cytotoxicity of a compound of the invention, two different assay methods are employed. The assays evaluate cell viability by measuring ATP levels and cytotoxicity by measuring LDH release. Adenosine Triphosphate (ATP) nucleotide represents the source of energy at the basic molecular level, as it is a multifunctional molecule that is used in every cell as a coenzyme and is an integral part of the mitochondrial DNA (Kangas, et al., Medical Biology, 1984, 62, 338-343; Crouch, et al., J Immunol. Methods, 1993, 160, 81-88; and Petty, et al., J Biolumin. Chemilumin. 1995, 10, 29-34). It has been called the “molecular unit of currency” when it comes to intracellular energy transfer.
as §1

dTGR5 = assay: Cross species TGR5 activity, CHO cells, dog; format: cell-based
[3] = Critical micellar concentration; format: physicochemical; settings: determined in […] NaCl water solution
Protocol: (§3) Physiochemical properties of a compound of the invention such as water solubility, critical micellar concentration, surface tension, and LogPA were determined using methods known in the art.

rTGR5 = rTGR5 (Rattus norvegicus (Rat), UniProt Q80T02); assay: Cross species TGR5 activity, CHO cells, rat; format: cell-based
Chain of rTGR5 (Q80T02 whole entry): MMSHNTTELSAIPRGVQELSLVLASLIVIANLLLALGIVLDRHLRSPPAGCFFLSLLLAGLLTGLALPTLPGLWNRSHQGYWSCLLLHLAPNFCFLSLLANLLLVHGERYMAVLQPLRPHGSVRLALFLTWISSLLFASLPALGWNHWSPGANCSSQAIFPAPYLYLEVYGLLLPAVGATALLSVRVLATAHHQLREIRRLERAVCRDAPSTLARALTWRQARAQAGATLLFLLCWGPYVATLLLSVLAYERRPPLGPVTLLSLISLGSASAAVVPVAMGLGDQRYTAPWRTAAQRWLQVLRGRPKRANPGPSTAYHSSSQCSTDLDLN

hTGR5 [4] = biological target: T1, hTGR5 (Homo sapiens (Human), UniProt Q8TDU6); assay: HTR-FRET intracellular cAMP assay in NCI-H716 cells; format: cell-based; settings: Table 2
T1 sequence (Q8TDU6 whole entry): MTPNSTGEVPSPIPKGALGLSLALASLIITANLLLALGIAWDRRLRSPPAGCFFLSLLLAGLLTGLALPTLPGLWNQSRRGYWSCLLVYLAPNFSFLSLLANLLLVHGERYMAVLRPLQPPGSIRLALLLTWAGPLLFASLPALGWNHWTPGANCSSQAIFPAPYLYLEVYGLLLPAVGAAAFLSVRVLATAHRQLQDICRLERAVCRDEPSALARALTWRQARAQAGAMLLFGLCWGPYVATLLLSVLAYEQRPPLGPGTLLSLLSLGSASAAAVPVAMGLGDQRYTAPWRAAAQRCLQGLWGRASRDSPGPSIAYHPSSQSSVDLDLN

[5] = system: FXR target genes: BSEP, SHP, OSTβ and CYP7A1; assay: FXR target gene panel, quantitative RT-PCR in HepG2 cells; format: cell-based; settings: stimulation for 18 hours
Protocol: To evaluate the capacity of a compound of the invention to modulate FXR target genes, quantitative RT-PCR assays are performed. HepG2 cells are selected as a relevant cell line to determine whether a compound of the invention can regulate the endogenous FXR genetic network. The ability of a compound of the invention to induce FXR target genes is assessed by isolating total RNA from cells treated overnight with 1 μM of compounds A, B, and a compound of the invention.
FXR regulates the expression of several target genes involved in BA homeostasis. Briefly, FXR plays a central role in several metabolic pathways, including i.e., lipid metabolism, bile-acids metabolism, and carbohydrate metabolism. Regarding gene expression profiling, the genes encoding proteins involved in lipid metabolism include, e.g., APOCII, APOE, APOAI, SREBP-1C, VLDL-R, PLTP, and LPL; the genes encoding proteins involved in bile-acids metabolism include, e.g., OSTα/β, BSEP, MRP2, SHP, CYP7A1, FGF19, SULT2A1, and UGT2B4; and the genes encoding proteins involved in carbohydrate metabolism include, e.g., PGCla, PEPCK, and GLUT2. FXR target genes: BSEP, SHP, OSTβ and CYP7A1 were evaluated following stimulation of Compounds 3, 5, 6, and 7 on HepG2 cells for 18 hours. Compound L1 was used as a control.

hERG potassium channel = hERG potassium channel (Homo sapiens (Human), UniProt Q12809); assay: biochemical
Chain of hERG potassium channel (Q12809 whole entry): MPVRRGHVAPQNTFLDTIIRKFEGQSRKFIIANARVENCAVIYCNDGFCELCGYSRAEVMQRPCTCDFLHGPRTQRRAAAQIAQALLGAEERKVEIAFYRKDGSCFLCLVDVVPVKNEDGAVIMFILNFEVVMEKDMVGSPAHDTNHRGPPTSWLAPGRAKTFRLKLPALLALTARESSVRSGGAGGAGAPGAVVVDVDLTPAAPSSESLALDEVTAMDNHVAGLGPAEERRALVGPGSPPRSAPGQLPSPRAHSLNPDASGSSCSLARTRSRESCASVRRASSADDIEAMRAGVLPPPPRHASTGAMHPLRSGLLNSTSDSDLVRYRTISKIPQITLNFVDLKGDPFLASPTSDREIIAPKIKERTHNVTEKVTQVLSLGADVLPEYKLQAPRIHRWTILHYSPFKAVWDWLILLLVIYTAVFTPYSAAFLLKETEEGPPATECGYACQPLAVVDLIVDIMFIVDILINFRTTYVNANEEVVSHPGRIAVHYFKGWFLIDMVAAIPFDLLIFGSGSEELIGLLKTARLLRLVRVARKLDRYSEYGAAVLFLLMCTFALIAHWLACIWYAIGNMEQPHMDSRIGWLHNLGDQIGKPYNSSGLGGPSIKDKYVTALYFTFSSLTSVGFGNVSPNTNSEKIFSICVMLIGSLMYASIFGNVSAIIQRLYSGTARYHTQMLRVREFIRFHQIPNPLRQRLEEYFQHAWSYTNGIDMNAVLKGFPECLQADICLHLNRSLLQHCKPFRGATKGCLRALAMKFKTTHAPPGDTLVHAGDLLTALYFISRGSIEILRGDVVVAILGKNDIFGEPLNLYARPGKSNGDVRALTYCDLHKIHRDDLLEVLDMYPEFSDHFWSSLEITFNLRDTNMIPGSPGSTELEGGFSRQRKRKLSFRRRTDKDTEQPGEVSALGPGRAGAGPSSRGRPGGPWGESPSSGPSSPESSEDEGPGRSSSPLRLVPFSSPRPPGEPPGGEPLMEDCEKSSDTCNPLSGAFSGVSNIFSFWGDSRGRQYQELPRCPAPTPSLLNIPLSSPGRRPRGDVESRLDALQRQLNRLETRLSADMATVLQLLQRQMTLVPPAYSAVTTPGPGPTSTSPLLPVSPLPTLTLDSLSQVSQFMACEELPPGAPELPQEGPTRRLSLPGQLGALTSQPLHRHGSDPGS
Source text: The assay is based on the assumption that the hERG potassium channel activity contributes to the resting membrane potential in permanently transfected cells, and thus a block of hERG channels should result in a depolarization of the cell membrane. The assay is designed to identify potential hERG channel blockers by producing data that accurately correlates with patch-clamp electrophysiology studies.
Membrane preparations from Chinese hamster ovary cells stably transfected with hERG potassium channel are used to evaluate the potential inhibitory effect of a compound of the invention on this channel using the Predictor™ fluorescence polarization assay. Reduction of membrane polarization as a result of inhibition of the hERG potassium channel is directly correlated with a reduction of the fluorescence polarization (FP).
An assay window more than 100 mP (millipolarization) is considered good. The non-linear regression curves are obtained by GraphPad Prism (GraphPad Software Inc.) analysis, to calculate the IC50 values.

CYP2D6 = CYP2D6 (Homo sapiens (Human), UniProt P10635); assay: CYP450 inhibition, fluorescent substrate, recombinant baculosomes; format: in vitro ADME; settings: read-out: CYP2D6 IC50
Chain of CYP2D6 (P10635 whole entry, canonical isoform): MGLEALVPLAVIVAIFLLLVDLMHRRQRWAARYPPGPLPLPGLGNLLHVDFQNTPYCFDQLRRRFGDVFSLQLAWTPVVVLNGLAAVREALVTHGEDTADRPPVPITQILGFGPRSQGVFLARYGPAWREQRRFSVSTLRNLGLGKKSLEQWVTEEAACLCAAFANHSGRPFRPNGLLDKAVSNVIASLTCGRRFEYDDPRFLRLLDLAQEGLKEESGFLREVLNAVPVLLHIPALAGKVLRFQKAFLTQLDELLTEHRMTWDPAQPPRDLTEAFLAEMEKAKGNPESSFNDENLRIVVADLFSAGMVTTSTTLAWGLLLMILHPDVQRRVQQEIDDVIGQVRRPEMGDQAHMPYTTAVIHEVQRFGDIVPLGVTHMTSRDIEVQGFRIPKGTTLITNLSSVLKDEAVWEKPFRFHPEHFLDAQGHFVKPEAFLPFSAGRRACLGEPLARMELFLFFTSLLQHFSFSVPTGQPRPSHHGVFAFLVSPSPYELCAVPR
Protocol: (§4) To evaluate the potential of a compound of the invention for drug-drug interactions, the six main CYP450 isoforms (CYP1A2, CYP2C9, CYP2C19, CYP2D6, CYP2E1, CYP3A4) are investigated (Obach, et al., J Pharmacol. Exp. Ther, 2006, 316, 336-348).
(§5) To determine interaction between a compound of the invention and cytochrome P450 enzymes, the compound of the invention is analyzed by its capacity to inhibit (or not) the production of a fluorescent signal, using recombinant CYP450 proteins (baculosomes; Invitrogen), substrates and inhibitors (Bidstrup, et al., Br J Clin. Pharmacol, 2003, 56, 305-14). As a positive control, a selective inhibitor for each CYP450 isoform is tested in the same plate.

CYP1A2 = CYP1A2 (Homo sapiens (Human), UniProt P05177); assay: as above; format: in vitro ADME
Chain of CYP1A2 (P05177 whole entry): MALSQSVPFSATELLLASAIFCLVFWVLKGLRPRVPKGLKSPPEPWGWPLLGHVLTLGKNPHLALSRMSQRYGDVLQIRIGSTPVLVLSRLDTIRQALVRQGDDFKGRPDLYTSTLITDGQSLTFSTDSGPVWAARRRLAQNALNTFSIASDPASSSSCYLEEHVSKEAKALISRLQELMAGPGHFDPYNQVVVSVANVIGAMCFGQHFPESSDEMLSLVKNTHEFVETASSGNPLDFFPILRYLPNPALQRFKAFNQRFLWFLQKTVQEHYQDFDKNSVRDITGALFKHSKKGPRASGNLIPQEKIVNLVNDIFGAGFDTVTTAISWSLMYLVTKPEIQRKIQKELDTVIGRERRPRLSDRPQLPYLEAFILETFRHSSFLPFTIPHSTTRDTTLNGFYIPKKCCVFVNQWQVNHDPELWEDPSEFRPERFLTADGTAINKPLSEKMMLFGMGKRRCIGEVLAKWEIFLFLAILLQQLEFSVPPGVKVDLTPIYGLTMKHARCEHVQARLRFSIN
Protocol: as §4, §5

CYP3A4 = CYP3A4 (Homo sapiens (Human), UniProt P08684); assay: as above; format: in vitro ADME
Chain of CYP3A4 (P08684 whole entry): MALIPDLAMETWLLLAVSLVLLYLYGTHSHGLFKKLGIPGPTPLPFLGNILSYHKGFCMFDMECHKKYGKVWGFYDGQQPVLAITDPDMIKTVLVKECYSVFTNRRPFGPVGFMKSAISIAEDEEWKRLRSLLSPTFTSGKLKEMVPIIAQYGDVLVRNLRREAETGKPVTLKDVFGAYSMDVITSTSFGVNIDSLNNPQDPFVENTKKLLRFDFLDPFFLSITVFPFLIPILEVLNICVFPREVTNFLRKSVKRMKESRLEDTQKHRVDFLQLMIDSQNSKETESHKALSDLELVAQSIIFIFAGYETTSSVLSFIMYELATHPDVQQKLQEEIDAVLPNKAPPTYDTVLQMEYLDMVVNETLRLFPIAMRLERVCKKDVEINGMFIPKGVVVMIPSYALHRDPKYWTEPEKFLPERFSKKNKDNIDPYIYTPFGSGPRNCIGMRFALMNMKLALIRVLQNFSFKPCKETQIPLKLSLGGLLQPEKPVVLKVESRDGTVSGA
Protocol: as §4, §5

CYP2C19 = CYP2C19 (Homo sapiens (Human), UniProt P33261); assay: as above; format: in vitro ADME; settings: read-out: CYP2C19 IC50
Chain of CYP2C19 (P33261 whole entry): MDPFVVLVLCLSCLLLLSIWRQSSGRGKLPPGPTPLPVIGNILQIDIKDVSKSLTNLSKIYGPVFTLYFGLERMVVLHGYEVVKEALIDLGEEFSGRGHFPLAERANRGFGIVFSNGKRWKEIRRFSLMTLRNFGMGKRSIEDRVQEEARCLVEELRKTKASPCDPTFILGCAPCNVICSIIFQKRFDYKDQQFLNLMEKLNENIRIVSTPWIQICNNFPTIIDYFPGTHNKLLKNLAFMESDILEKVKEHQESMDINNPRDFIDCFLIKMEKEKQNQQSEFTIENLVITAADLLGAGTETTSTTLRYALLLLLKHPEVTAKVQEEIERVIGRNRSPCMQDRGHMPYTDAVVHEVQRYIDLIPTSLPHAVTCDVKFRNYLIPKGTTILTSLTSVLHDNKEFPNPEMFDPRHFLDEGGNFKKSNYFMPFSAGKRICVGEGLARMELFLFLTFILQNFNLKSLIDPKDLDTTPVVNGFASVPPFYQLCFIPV
Protocol: as §4, §5

CYP2C9 = CYP2C9 (Homo sapiens (Human), UniProt P11712); assay: as above; format: in vitro ADME; settings: read-out: CYP2C9 IC50
Chain of CYP2C9 (P11712 whole entry): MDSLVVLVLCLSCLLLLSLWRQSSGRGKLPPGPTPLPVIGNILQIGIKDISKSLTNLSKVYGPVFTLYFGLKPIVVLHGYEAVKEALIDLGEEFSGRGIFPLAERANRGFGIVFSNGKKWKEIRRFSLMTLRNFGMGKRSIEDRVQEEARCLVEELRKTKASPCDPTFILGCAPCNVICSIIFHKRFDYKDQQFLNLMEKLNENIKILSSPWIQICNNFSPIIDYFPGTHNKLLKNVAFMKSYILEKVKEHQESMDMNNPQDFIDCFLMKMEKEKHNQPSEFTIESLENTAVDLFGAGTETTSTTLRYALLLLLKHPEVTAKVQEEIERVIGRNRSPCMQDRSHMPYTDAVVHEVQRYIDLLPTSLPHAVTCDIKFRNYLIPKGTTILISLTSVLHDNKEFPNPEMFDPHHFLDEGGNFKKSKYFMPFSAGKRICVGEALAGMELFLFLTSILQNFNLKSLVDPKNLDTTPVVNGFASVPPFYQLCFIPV
Protocol: as §4, §5

CYP2E1 = CYP2E1 (Homo sapiens (Human), UniProt P05181); assay: as above; format: in vitro ADME; settings: read-out: CYP2E1 IC50
Chain of CYP2E1 (P05181 whole entry): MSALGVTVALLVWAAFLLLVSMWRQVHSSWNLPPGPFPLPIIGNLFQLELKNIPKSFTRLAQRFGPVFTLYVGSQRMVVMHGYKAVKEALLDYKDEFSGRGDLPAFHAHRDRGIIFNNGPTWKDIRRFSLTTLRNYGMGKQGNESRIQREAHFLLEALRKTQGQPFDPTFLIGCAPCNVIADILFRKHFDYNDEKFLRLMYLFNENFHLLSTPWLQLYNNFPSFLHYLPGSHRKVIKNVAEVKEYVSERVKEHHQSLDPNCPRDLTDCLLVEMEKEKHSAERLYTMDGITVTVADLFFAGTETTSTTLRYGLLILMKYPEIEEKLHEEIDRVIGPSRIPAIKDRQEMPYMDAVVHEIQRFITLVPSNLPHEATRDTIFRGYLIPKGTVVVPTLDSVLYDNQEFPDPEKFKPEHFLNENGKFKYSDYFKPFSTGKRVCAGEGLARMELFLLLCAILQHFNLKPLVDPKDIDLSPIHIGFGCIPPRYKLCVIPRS
Protocol: as §4, §5

mTGR5 = mTGR5 (Mus musculus (Mouse), UniProt Q80SS6); assay: Cross species TGR5 activity, CHO cells, mouse; format: cell-based
[6] = 1-octanol-water partition coefficient of ionized species; format: physicochemical
Protocol: as §3

[7] = system: nuclear receptors LXRP, PXR, CAR, PPARα, PPARγ, RAR, RARα, VDR, TR, PR, RXR, GR, and ER; assay: Nuclear receptor selectivity profile (AlphaScreen); format: biochemical; settings: for Activation of nuclear receptor panel, agonist mode: dose response to 200 μM; for Activity on nuclear receptor panel, antagonist mode: fixed concentration at 10 μM
Protocol: Using the AlphaScreen assay, the selectivity of a compound of the invention against the following nuclear receptors involved in the metabolic pathways can be evaluated: LXRP, PXR, CAR, PPARα, PPARα, PPARγ, RAR, RARα, VDR, TR, PR, RXR, GR, and ER.
Compounds L1, 3, 5, 6 and 7 were tested against the panel of available nuclear receptor in both agonist and antagonist mode.

HepG2 cells [8] = assay: In-vitro cytotoxicity, membrane integrity (LDH release); format: cell-based
Source text: as §2, §1

hTGR5 [9] = biological target: T1, hTGR5; assay: Cross species TGR5 activity, CHO cells, human; format: cell-based
[10] = Blue substrate, read-out: CYP3A4 (Blue substrate) IC50
[11] = Green substrate, read-out: CYP3A4 (Green substrate) IC50

C[C@H](CCC(=O)O)[C@H]1CC[C@H]2[C@@H]3CC[C@@H]4C[C@H](O)CC[C@]4(C)[C@H]3CC[C@]12C [LCA, lithocholic acid, reference compound]
EC50 (HepG2 cells [1]; Homo sapiens): 75 ± 5 µM | CC50 [2]: 100 ± 5 µM

CC[C@H]1[C@@H](O)C2C3CC[C@H]([C@H](C)Cc4nc(=O)o[nH]4)[C@@]3(C)C[C@H](O)C2[C@@]2(C)CC[C@@H](O)C[C@@H]12 (stereo partly drawn) [Compound 6, 3α,7α,11β-trihydroxy-6α-ethyl-22-(1,2,4-oxadiazol-5-oxo-3-yl)-23,24-bisnor-5β-cholane]
EC50 (dTGR5): 1.5 ± 0.3 µM | CMC: Critical Micellar Concentration [3]: 28 mM | rTGR5 CHO EC50 (rTGR5): No activity | HTR-FRET (cAMP) Human TGR5 EC50 (hTGR5 [4]): No activity | Modulation of FXR target genes BSEP, SHP, OSTβ and CYP7A1 [5]: significantly bind to FXR in hepatic cells modulating FXR target genes | IC50 (hERG potassium channel): > 100 µM | hERG potassium channel inhibition (in words) (hERG potassium channel): Compounds L1, 3, 5, 6 and 7 did not inhibit hERG potassium channel. | IC50 (CYP2D6): > 10 µM | IC50 (CYP1A2): > 10 µM | IC50 (CYP3A4; [10]): > 10 µM | IC50 (CYP3A4; [11]): > 10 µM | IC50 (CYP2C19): > 10 µM | IC50 (CYP2C9): > 10 µM | IC50 (CYP2E1): > 10 µM | ATP Content EC50 (HepG2 cells [1]): No toxicity | mTGR5 CHO EC50 (mTGR5): No activity | LogPA−: 1-octanol-water partition coefficient as ionized species [6]: 1.7 | Activation of nuclear receptor panel, agonist mode [7]: Neither compound activated any of the receptors | Activity on nuclear receptor panel, antagonist mode [7]: Neither compound activated any of the receptors | Membrane Integrity (LDH measure) LC50 (HepG2 cells [8]): No toxicity | hTGR5 CHO EC50 (hTGR5 [9]): No activity

CC[C@H]1[C@@H](O)C2C3CC[C@H]([C@H](C)CCc4nc(=O)o[nH]4)[C@@]3(C)C[C@H](O)C2[C@@]2(C)CC[C@@H](O)C[C@@H]12 (stereo partly drawn) [Compound 7, 3α,7α,11β-Trihydroxy-6α-ethyl-23-(1,2,4-oxadiazol-5-oxo-3-yl)-24-nor-5β-cholane]
EC50 (dTGR5): 7.6 ± 0.01 µM | rTGR5 CHO EC50 (rTGR5): No activity | HTR-FRET (cAMP) Human TGR5 EC50 (hTGR5 [4]): No activity | Modulation of FXR target genes BSEP, SHP, OSTβ and CYP7A1 [5]: significantly bind to FXR in hepatic cells modulating FXR target genes | IC50 (hERG potassium channel): > 100 µM | hERG potassium channel inhibition (in words) (hERG potassium channel): Compounds L1, 3, 5, 6 and 7 did not inhibit hERG potassium channel. | IC50 (CYP2D6): > 10 µM | IC50 (CYP1A2): > 10 µM | IC50 (CYP3A4; [10]): > 10 µM | IC50 (CYP3A4; [11]): > 10 µM | IC50 (CYP2C19): > 10 µM | IC50 (CYP2C9): > 10 µM | IC50 (CYP2E1): > 10 µM | ATP Content EC50 (HepG2 cells [1]): No toxicity | EC50 (mTGR5): 9.5 ± 2 µM | LogPA−: 1-octanol-water partition coefficient as ionized species [6]: 2.0 | Activation of nuclear receptor panel, agonist mode [7]: Neither compound activated any of the receptors | Activity on nuclear receptor panel, antagonist mode [7]: Neither compound activated any of the receptors | Membrane Integrity (LDH measure) LC50 (HepG2 cells [8]): No toxicity | hTGR5 CHO EC50 (hTGR5 [9]): No activity

CC[C@H]1[C@@H](O)C2C3CC[C@H]([C@H](C)CCC(=O)O)[C@@]3(C)C[C@H](O)C2[C@@]2(C)CC[C@@H](O)C[C@@H]12 (stereo partly drawn) [Compound L1, reference compound]
dTGR5 CHO EC50 (dTGR5): No activity | rTGR5 CHO EC50 (rTGR5): No activity | hERG potassium channel inhibition (in words) (hERG potassium channel; Table 7 footnote): Compounds L1, 3, 5, 6 and 7 did not inhibit hERG potassium channel. | IC50 (hERG potassium channel; read-out: hERG inhibition IC50, Table 7): > 100 µM | IC50 (CYP2D6): > 10 µM | IC50 (CYP1A2): > 10 µM | IC50 (CYP3A4; [10]): > 10 µM | IC50 (CYP3A4; [11]): > 10 µM | IC50 (CYP2C19): > 10 µM | IC50 (CYP2C9): > 10 µM | IC50 (CYP2E1): > 10 µM | ATP Content EC50 (HepG2 cells [1]): No toxicity | mTGR5 CHO EC50 (mTGR5): No activity | LogPA−: 1-octanol-water partition coefficient as ionized species [6]: 0.84 | Activation of nuclear receptor panel, agonist mode [7]: Neither compound activated any of the receptors | Activity on nuclear receptor panel, antagonist mode [7]: Neither compound activated any of the receptors | Membrane Integrity (LDH measure) LC50 (HepG2 cells [8]): No toxicity
